Measured values published in patent publication US10933074B2, “Methods for improving the gastrointestinal tolerance of food and beverage products comprising sweet, low-digestible carbohydrates” (Tate & Lyle Ingredients Americas LLC, priority 2015, dated 2021).

Test system: volunteers
Design: species or system human
Conditions: in vivo
Experimental: In this Example, subjects tested 4 different beverages, consumed in the morning with at least one week washout between test days. The beverages were consumed on an empty stomach, and there was instruction for subjects to wait 2 hours before having any other food. The primary outcome was the total gastrointestinal symptom scores over 24-hours for loose stool GI symptom derived from a GI symptoms rating diary. The 4 test beverages (8 oz./236.6 ml) were flavoured with a strawberry mix and contained: 1) 25 g of D-allulose; 2) 25 g of D-allulose and 25 g of D-glucose; 3) 25 g of D-allulose and 1 g of beta-glucan fiber; or 4) 25 g of sucrose. […] On the day of the test, the subjects followed the below set of instructions: • 1. Testing start times begin when you start consuming the drink; record date and time you begin on the diary. • 2. Consume the test drink at the same time each week. • a. Consume the entire drink 8 oz. (236.6 ml) drink in under 15 minutes. • b. Refill the drink container with water and consume as a chaser. • c. You may have additional water after 60 minutes as desired. • 3. Record GI symptom scores at 2, 4 and 24-hours after starting drink consumption. • 4. You may eat a snack or breakfast 2 hours after the test drink. • 5. Record all bowel movements and the Bristol Stool type during the 24-hour observation period. • 6. Resume normal food consumption for the day; however avoid foods which you know may cause gastric upset or gas for the 24-hour observation period. […] The Bristol Stool test scores were scored from 1-7. […]

Compound: O=C(CO)[C@H](O)[C@H](O)[C@H](O)CO [D-allulose]
- number of people reporting symptoms: greatest
- order of softer stools: allulose>allulose+beta-glucan>allulose+D-glucose>sucrose
- stool softening (Bristol Stool test score, 24 hour average): softening effect
